Laboratory results reported in publication PMC4718940, “Preclinical studies of 5-fluoro-2′-deoxycytidine and tetrahydrouridine in pediatric brain tumors” (Journal of Neuro-Oncology, 2015).
Read-outs that look alike come from different tables or passages of the source.

Legend:
[1] = system: mouse CPC neurospheres (CPC300); assay: 72 h dose response, CellTiter-Glo, mouse CPC neurospheres; assay type: cell-based; conditions: Mus musculus, Fig. 2a, read-out: EC50
Description: (§1) In the Discovery Phase, the initial studies included the screen of a library of 9 compounds against epigenetic regulators at a single concentration and a dose-response on G3 MB, EP, and CPC tumor cells, as well as HEPG2 and BJ (Fig. 1). The library and dose response studies are described in the Supplementary Material.
(§2) Briefly, cells (see Supplementary Table S2 for cell identity) were plated in 384-well plates (Corning) in 30 µL of supplemented neurobasal medium by using an automated plate filler (Wellmate, Matrix). After 24 hr, 28 nL of compound was transferred via pin tool, resulting in a final drug concentration of approximately 4 nM to 10 µM. After 72 hr of treatment, CellTiter-Glo reagent (Promega) was added, and the luminescence signal was measured using an automated Envision plate reader (Perkin-Elmer). Luminescence data were normalized by log10-transformation prior to calculating the percentage of inhibition using the following equation: 100 × (negative control mean − compound value)/(negative control mean − positive control mean). Our negative control represents cells treated with 0.1% DMSO with 0% inhibition. Cells treated with 35 µM cycloheximide (G3 MB tumor spheres) or 10 µM panobinostat (EP and CPC cells) were used as positive controls with 100% inhibition. The response of cells to the compounds were normalized to that of the positive controls present in each plate screened, shown in the Y axis of the dose-response curve. […] Unless otherwise reported, the y-axis for each dose response curve in the figures was independently normalized to the range from 0 to 1 and therefore reported as ‘relative growth inhibition’. High through put assay data were analyzed by using our in-house Robust Interpretation of Screening Experiments (RISE) application that was written in Pipeline Pilot (Accelrys, v. 8.5) and R (R Development Core Team).

CPC cells = assay: FdCyd wash-out experiment, CPC; assay type: cell-based; conditions: Mus musculus
Description: (§3) Myc1 and Myc2 G3 MB, EP, and CPC tumor cells (Supplementary Table 1) were plated in 96-well plates. After 24 h, 128 nL of a dilution series of a selected drug was transferred creating a final drug concentration of 0.5–9.3 µM. To assess the optimal exposure time, the drug was removed and replaced with fresh medium after 1, 3, 6, 10, 24, or 72 h (“wash-out”).
(§4) In both experiments, 72 h after drug addition to cells, we added 100 µL of CellTiter-Glo reagent (Promega), and we read the luminescence signal. Data analysis used GraphPad Prism software (Version 5.04).

EP tumors = assay: In vivo proliferation, Ki67 immunohistochemistry, EP
Description: (§7) To assess apoptosis and proliferation in vivo, G3 MB, EP, and CPC tumors were isolated from mice 3, 8, or 24 h after treatment with compound or vehicle, fixed in 10 % formalin, and sections were immunostained with antibodies to Caspase 3 (apoptosis) or Ki67 (proliferation).
(§8) In vivo apoptosis and proliferation were performed on G3 MB, EP, and CPC tumors isolated from mice 3, 8, or 24 hr after treatment with compound or vehicle (saline). Tumors were fixed in 10% formalin. Sections (4-micron) were immunostained with antibodies to Caspase 3 (CP229C, BioCare Medical, Concorde, CA) to detect apoptotic cells, or Ki67 (ThermoShandon, RM9106) to detect proliferation. The number of positive cells for each stain was normalized to the total number of cells.
(§9) Mice bearing G3 MB, EP, or CPC tumors were harvested 3, 8, or 24 hr after IP injection of vehicle (V) or FdCyd + THU (FdCyd). Fixed brains were sliced and stained for Ki67. The percentage of positive cells was calculated based on total number of cells.

[2] = system: mouse G3 MB tumorspheres (Myc1, Myc2); assay: In vitro proliferation/cell cycle, BrdU FACS; assay type: cell-based; conditions: 4 nM FdCyd alone, compared to DMSO-treated cells
From the text: (§5) See Supplementary Material for more details.
(§6) Tumors were fixed in 10% formalin.

EP cells = assay: FdCyd wash-out experiment, EP; assay type: cell-based; conditions: Mus musculus
Description: as §3, §4

G3 MB tumors [3] = assay: In vivo proliferation, Ki67 immunohistochemistry, G3 MB
Description: as §7, §8, §9

[4] = system: Ink4a/Arf−/− neural stem cells; assay: FdCyd growth inhibition, neural stem cells; assay type: cell-based, mouse; conditions: Fig. 2c
[5] = system: Mouse G3 MB Myc1 neurospheres; assay: 72 h dose response, CellTiter-Glo, mouse G3 MB neurospheres; assay type: cell-based; conditions: Mus musculus, Fig. 2a, read-out: EC50
Description: as §1, §2

[6] = system: Trp53−/−, Cdkn2c−/− neurospheres; assay: In vitro cell cycle and apoptosis, control neurospheres; assay type: cell-based, mouse; conditions: 4 nM FdCyd
From the text: as §5, §6

BJ cells = assay: FdCyd growth inhibition, BJ control cells; assay type: cell-based, human; conditions: Fig. 2c
[7] = Plasma pharmacokinetics in non-tumor-bearing CD1 nude mice; assay type: in vivo, mouse; conditions: for AUC(0-inf): read-out: plasma exposure (AUC0-Inf), mean ± SD
Description: Once a drug passed the Discovery Phase it was moved to the Pre-Clinical Phase, which included PK and PD studies (Fig. 1). The details of the plasma PK and cerebral microdialysis studies are provided in the Supplemental Materials.
An initial, detailed plasma PK study was performed in non–tumor-bearing CD1 nude mice to define drug disposition in our mouse model of interest, determine the plasma systemic exposure, and when possible, to compare the systemic exposure in the mouse with that achievable in patients at clinically relevant dosages. Dosing solutions were prepared in 5% dextrose for injection at concentrations providing a standard final dosing volume of 10 mL/kg (i.e., 2.5 mg/mL FdCyd and 10 mg/mL THU). Plasma samples were separated by centrifugation and stored at −80°C until analysis using a sensitive and specific liquid chromatography–tandem mass spectrometry (LC-MS/MS) method to determine FdCyd concentrations. Plasma samples were collected by using a sparse sampling design in which 2 - 3 blood samples per mouse were collected in tubes containing zebularine (final concentration in blood sample, 1 mg/mL) to inhibit cytidine deaminase activity in vitro.
An appropriate pharmacokinetic model was fit to the observed concentration-time data obtained from the initial PK studies (IP and IV administration) by using non-linear mixed-effect modeling (NONMEM 7.2, ICON Development Solutions). Using D-optimality implemented in ADAPT 5, we use the data from the plasma pharmacokinetic study to define a pharmacokinetic limited sampling model (LSM), which will be used in subsequent microdialysis studies.

G3 MB tumors [8] = assay: In vivo apoptosis, Caspase 3 immunohistochemistry, G3 MB
Description: as §7, §8
Mice bearing G3 MB, EP, or CPC tumors were harvested 3, 8, or 24 hr after IP injection of vehicle (V) or FdCyd + THU (FdCyd). Fixed brains were sliced and stained for caspase 3. The percentage of positive cells was calculated based on total number of cells. SD= standard deviation.

[9] = system: mouse G3 MB tumorspheres (Myc1, Myc2); assay: In vitro apoptosis, Annexin V and DAPI FACS; assay type: cell-based; conditions: 4 nM FdCyd alone, 24, 48, 72 h, compared to DMSO-treated cells
From the text: as §5, §6

HEPG2 cells = assay: FdCyd growth inhibition, HEPG2 control cells; assay type: cell-based, human; conditions: Fig. 2c
[10] = 1 h exposure then wash-out, read at 72 h, read-out: EC50 after 1 h FdCyd exposure
[11] = 72 h, wash-out, 1st of 4 values listed for the remaining time points (3, 6, 10, 24, 72 h), read-out: EC50, longer exposure
[12] = 72 h, wash-out, 2nd of 4 values listed for the remaining time points (3, 6, 10, 24, 72 h), read-out: EC50, longer exposure
[13] = 72 h, wash-out, 3rd of 4 values listed for the remaining time points (3, 6, 10, 24, 72 h), read-out: EC50, longer exposure
[14] = 72 h, wash-out, 4th of 4 values listed for the remaining time points (3, 6, 10, 24, 72 h), read-out: EC50, longer exposure

For `Nc1nc(=O)n([C@H]2C[C@H](O)[C@@H](CO)O2)cc1F` [FdCyd, 5-fluoro-2′-deoxycytidine], which EC50 [1] is on record?
The EC50 was 5.6 nM.

And the EC50 (CPC cells; [10])?
The EC50 was 63 ± 28 nM.

And the EC50 (CPC cells; [11])?
Its EC50 is 58 nM.

What about the EC50 (CPC cells; [12]) of the same compound?
The EC50 was 44 nM.

And the EC50 (CPC cells; [13])?
Its EC50 is 31 nM.

What about the EC50 (CPC cells; [14]) of the same compound?
Its EC50 is 1 nM.

What about the “Ki67 % of positive cells” value (EP tumors; 3 hr after IP injection of FdCyd + THU, vehicle 81.79) of the same compound?
Its value is 77.06%.

And the “Ki67 % of positive cells” value (EP tumors; 8 hr after IP injection of FdCyd + THU, vehicle 80.10)?
The value was 72.88%.

What about the “Ki67 % of positive cells” value (EP tumors; 24 hr after IP injection of FdCyd + THU, vehicle 68.41) of the same compound?
The value was 72.62%.

And the “cell cycle distribution (BrdU)” value [2]?
The value was “increased the number of cells in the G0/G1phase”.

What about the EC50 (EP cells; [10]) of the same compound?
Its EC50 is 22 ± 8 nM.

What about the EC50 (EP cells; [11]) of the same compound?
Its EC50 is 17 nM.

And the EC50 (EP cells; [12])?
Its EC50 is 13 nM.

And the EC50 (EP cells; [13])?
Its EC50 is 3 nM.

What about the EC50 (EP cells; [14]) of the same compound?
Its EC50 is 0.7 nM.

And the “Ki67 % of positive cells” value (G3 MB tumors [3]; 3 hr after IP injection of FdCyd + THU, vehicle 87.77)?
The value was 84.97%.

What about the “Ki67 % of positive cells” value (G3 MB tumors [3]; 8 hr after IP injection of FdCyd + THU, vehicle 78.11) of the same compound?
Its value is 76.50%.

And the “Ki67 % of positive cells” value (G3 MB tumors [3]; 24 hr after IP injection of FdCyd + THU, vehicle 85.15)?
Its value is 77.15%.

What about the “sensitivity to FdCyd (growth inhibition)” value [4] of the same compound?
Its value is “showed sensitivity”.

What about the EC50 [5] of the same compound?
The EC50 was 1.7 nM.

What about the “effect on cell cycle and apoptosis of control neurospheres” value [6] of the same compound?
Its value is “without affecting control neurospheres”.

What about the “sensitivity to FdCyd (growth inhibition)” value (BJ cells) of the same compound?
The value was “not”.

And the “FdCyd exposure in mice relative to humans” value ([7]; CD1 nude mice 25 mg/kg vs humans at RP2D 100 mg/m^2, human PK ref 26)?
Its value is “approximately 4 times higher”.

And the AUC(0-inf) ([7]; CD1 nude, mouse, plasma, FdCyd 25 mg/kg with THU 100 mg/kg, IP)?
Its AUC(0-inf) is 112 ± 6.55 µM·h.

And the AUC(0-inf) ([7]; CD1 nude, mouse, plasma, FdCyd 25 mg/kg with THU 100 mg/kg, IV)?
Its AUC(0-inf) is 114 ± 4.77 µM·h.

What about the clearance ([7]; CD1 nude, mouse, plasma, FdCyd 25 mg/kg with THU 100 mg/kg, NONMEM, IV and IP data, read-out: systemic clearance, population mean (standard error of estimation) (converted)) of the same compound?
The clearance was 15 mL/min/kg.

And the Vd ([7]; CD1 nude, mouse, plasma, FdCyd 25 mg/kg with THU 100 mg/kg, NONMEM, IV and IP data, read-out: volume of distribution, population mean (standard error of estimation))?
The Vd was 0.62 L/kg.

And the “murine plasma exposure compared with RP2D in humans” value ([7]; IP 6 mg/kg FdCyd with 100 mg/kg THU, confirmatory PK study)?
Its value is “comparable”.

And the “Caspase-3 % of positive cells” value (G3 MB tumors [8]; 3 hr after IP injection of FdCyd + THU, vehicle 12.37)?
The value was 19.88%.

What about the “Caspase-3 % of positive cells” value (G3 MB tumors [8]; 8 hr after IP injection of FdCyd + THU, vehicle 8.945) of the same compound?
Its value is 11.04%.

What about the “Caspase-3 % of positive cells” value (G3 MB tumors [8]; 24 hr after IP injection of FdCyd + THU, vehicle 9.419) of the same compound?
The value was 10.38%.

And the “number of apoptotic cells (Annexin V)” value [9]?
Its value is “increased”.

What about the “sensitivity to FdCyd (growth inhibition)” value (HEPG2 cells) of the same compound?
Its value is “not”.
